Common to all, as to type: in vivo
Common to all, as to details: 250 g/ha, evaluated after 13 days

Experiment [1] has as its system Echinochloa crus-galli (ECHCG). In words: Pre-emergence biological efficacy, ECHCG. As to the method:
(§1) Seeds of weeds and/or crops were sown in standard soil in pots (Amaranthus palmeri (AMAPA), Lolium perenne (LOLPE), Euphorbia heterophylla (EPHHL), Ipomoea hederacea (IPOHE), Setaria faberi (SETFA), Echinochloa crus-galli (ECHCG)). After cultivation for one day under controlled conditions in a glasshouse (at 24/19° C., day/night; 16 hours light), the plants were sprayed with an aqueous spray solution derived from the formulation of the technical active ingredient in a small amount of acetone and a special solvent and emulsifier mixture referred to as IF50 (11.12% Emulsogen EL360 TM+44.44% N-methylpyrrolidone+44.44% Dowanol DPM glycol ether), to create a 50 g/l solution which was then diluted using 0.2% Genapol XO80 as diluent to give the desired final dose of test compound.
(§2) The test plants were then grown under controlled conditions in the glasshouse (at 24/18° C., day/night; 15 hours light; 50% humidity) and watered twice daily. After 13 days the test was evaluated (100=total damage to plant; 0=no damage to plant).

In experiment [2] the test system is Amaranthus palmeri (AMAPA). Briefly: Pre-emergence biological efficacy, AMAPA. As to the method:
as §1, §2

Experiment [3] concerns Lolium perenne (LOLPE). In words: Pre-emergence biological efficacy, LOLPE. On the procedure: as §1, §2
The next experiment concerns Eleusine indica (ELEIN). Briefly: Post-emergence biological efficacy, ELEIN. As to the method: as §1, with “Chenopodium album (CHEAL),” for “Lolium perenne (LOLPE),”, “(IPOHE), Eleusine indica (ELEIN), Lolium perenne (LOLPE), Digitaria sanguinalis (DIGSA),” for “(IPOHE),”, “14 days” for “one day”
as §2

Experiment [4] relates to Chenopodium album (CHEAL). In words: Post-emergence biological efficacy, CHEAL. As to the method:
as §1, with “Chenopodium album (CHEAL),” for “Lolium perenne (LOLPE),”, “(IPOHE), Eleusine indica (ELEIN), Lolium perenne (LOLPE), Digitaria sanguinalis (DIGSA),” for “(IPOHE),”, “14 days” for “one day”
as §2

Experiment [5] relates to Ipomoea hederacea (IPOHE). Briefly: Pre-emergence biological efficacy, IPOHE. As to the method:
as §1, §2

For experiment [6], the system named is Echinochloa crus-galli (ECHCG). Briefly: Post-emergence biological efficacy, ECHCG. On the procedure: as §1, with “Chenopodium album (CHEAL),” for “Lolium perenne (LOLPE),”, “(IPOHE), Eleusine indica (ELEIN), Lolium perenne (LOLPE), Digitaria sanguinalis (DIGSA),” for “(IPOHE),”, “14 days” for “one day”
as §2

Experiment [7] relates to Ipomoea hederacea (IPOHE). Briefly: Post-emergence biological efficacy, IPOHE. As to the method:
as §1, with “Chenopodium album (CHEAL),” for “Lolium perenne (LOLPE),”, “(IPOHE), Eleusine indica (ELEIN), Lolium perenne (LOLPE), Digitaria sanguinalis (DIGSA),” for “(IPOHE),”, “14 days” for “one day”
as §2

Experiment [8] concerns Setaria faberi (SETFA). In words: Pre-emergence biological efficacy, SETFA. On the procedure: as §1, §2
The subject of experiment [9] is Digitaria sanguinalis (DIGSA). Briefly: Post-emergence biological efficacy, DIGSA. As to the method: as §1, with “Chenopodium album (CHEAL),” for “Lolium perenne (LOLPE),”, “(IPOHE), Eleusine indica (ELEIN), Lolium perenne (LOLPE), Digitaria sanguinalis (DIGSA),” for “(IPOHE),”, “14 days” for “one day”
as §2

Experiment [10] concerns Euphorbia heterophylla (EPHHL). In words: Post-emergence biological efficacy, EPHHL. As to the method:
as §1, with “Chenopodium album (CHEAL),” for “Lolium perenne (LOLPE),”, “(IPOHE), Eleusine indica (ELEIN), Lolium perenne (LOLPE), Digitaria sanguinalis (DIGSA),” for “(IPOHE),”, “14 days” for “one day”
as §2

Experiment [11] relates to Lolium perenne (LOLPE). Briefly: Post-emergence biological efficacy, LOLPE. As to the method:
as §1, with “Chenopodium album (CHEAL),” for “Lolium perenne (LOLPE),”, “(IPOHE), Eleusine indica (ELEIN), Lolium perenne (LOLPE), Digitaria sanguinalis (DIGSA),” for “(IPOHE),”, “14 days” for “one day”
as §2

Experiment [12] concerns Amaranthus palmeri (AMAPA). Briefly: Post-emergence biological efficacy, AMAPA. As to the method:
as §1, with “Chenopodium album (CHEAL),” for “Lolium perenne (LOLPE),”, “(IPOHE), Eleusine indica (ELEIN), Lolium perenne (LOLPE), Digitaria sanguinalis (DIGSA),” for “(IPOHE),”, “14 days” for “one day”
as §2

In experiment [13] the test system is Setaria faberi (SETFA). In words: Post-emergence biological efficacy, SETFA. As to the method:
as §1, with “Chenopodium album (CHEAL),” for “Lolium perenne (LOLPE),”, “(IPOHE), Eleusine indica (ELEIN), Lolium perenne (LOLPE), Digitaria sanguinalis (DIGSA),” for “(IPOHE),”, “14 days” for “one day”
as §2

Experiment [14] has as its system Euphorbia heterophylla (EPHHL). Briefly: Pre-emergence biological efficacy, EPHHL. On the procedure:
as §1, §2

Consider `COC(=O)CCOC(=O)C(C)Sc1cc(-n2c(=O)n(C)c(=S)n(C)c2=O)c(F)cc1Cl` (stereo not drawn) [Compound 9-245, (3-methoxy-3-oxo-propyl) 2-[2-chloro-5-(3,5-dimethyl-2,6-dioxo-4-thioxo-1,3,5-triazinan-1-yl)-4-fluoro-phenyl]sulfanylpropanoate], for which the results for the “damage to plant (100=total damage; 0=no damage), ECHCG” value in experiment [1] and in experiment [6] were 80 and 70, respectively. The “damage to plant (100=total damage; 0=no damage), AMAPA” value in [2] and in experiment [12] was 100 in each case. The “damage to plant (100=total damage; 0=no damage), LOLPE” value with Lolium perenne (LOLPE) [3] was determined as 80; in the experiment on Lolium perenne (LOLPE) [11], 100. For the same compound, in the experiment on Eleusine indica (ELEIN), the “damage to plant (100=total damage; 0=no damage), ELEIN” value came out at 80. For the same compound, in experiment [4], the “damage to plant (100=total damage; 0=no damage), CHEAL” value came to 100. Moreover, the “damage to plant (100=total damage; 0=no damage), IPOHE” value amounted to 90 in experiment [5] and 100 in experiment [7]. Further, the “damage to plant (100=total damage; 0=no damage), SETFA” value in the experiment with Setaria faberi (SETFA) [8] was 100; with Setaria faberi (SETFA) [13], 40. Further, the “damage to plant (100=total damage; 0=no damage), DIGSA” value in [9] came to 30. Further, the “damage to plant (100=total damage; 0=no damage), EPHHL” value in experiment [10] was determined as 90; in experiment [14] it was 100.

For the compound `COC(=O)CCNC(=O)C(C)Sc1cc(-n2c(=O)n(C)c(=S)n(C)c2=O)c(F)cc1Cl` (stereo not drawn) [Compound 9-272, methyl 3-[2-[2-chloro-5-(3,5-dimethyl-2,6-dioxo-4-thioxo-1,3,5-triazinan-1-yl)-4-fluoro-phenyl]sulfanylpropanoylamino]propanoate], the “damage to plant (100=total damage; 0=no damage), ECHCG” value in experiment [1] is listed as 80; in experiment [6], 40. In addition, the “damage to plant (100=total damage; 0=no damage), AMAPA” value in [2] was determined as 100; in experiment [12] it was 80. Moreover, the results for the “damage to plant (100=total damage; 0=no damage), LOLPE” value in the experiment with Lolium perenne (LOLPE) [3] and with Lolium perenne (LOLPE) [11] were 90 and 100, respectively. Also, the “damage to plant (100=total damage; 0=no damage), ELEIN” value with Eleusine indica (ELEIN) was 80. In addition, the “damage to plant (100=total damage; 0=no damage), CHEAL” value in [4] is recorded as 90. Further, the “damage to plant (100=total damage; 0=no damage), IPOHE” value in experiment [5] and in experiment [7] was 100 in each case. Further, the “damage to plant (100=total damage; 0=no damage), SETFA” value in the experiment with Setaria faberi (SETFA) [8] was 100; in the experiment with Setaria faberi (SETFA) [13] it was 90. For the same compound, the “damage to plant (100=total damage; 0=no damage), DIGSA” value in experiment [9] amounted to 70. For the same compound, the “damage to plant (100=total damage; 0=no damage), EPHHL” value in experiment [10] is listed as 90; in [14], 100.

Values taken from patent publication US20250109112A1, “HERBICIDAL COMPOUNDS” (SYNGENTA CROP PROTECTION AG, priority 2022, published 2025).
